Test results from patent US20050107474A1, “Pharmaceutical compositions for the treatment of infections of the respiratory system by pathogenic agents” (priority 2002, published 2005).
“And” between values parts separate entries of the source, which are not always exact repeats. Identical values can stand only once.

Tests used:
S. aureus [1] = experiment: Viability (CFU/ml) of biofilm cells after sonication and seeding; format: cell-based, Staphylococcus aureus; settings: maximum concentration, range over strains
Experimental: (§1) The effects of NAC and TAPh on the biofilm produced by S. aureus were evaluated on four strains of the microorganism designated 1393, 1876, 1880 and 1890.
At the same time, the biofilms thus treated were submitted to sonication in order to disperse the cells that were still adhering, and these were seeded on rich medium after suitable dilution for calculating the vital elements surviving the various treatments.

S. epidermidis = settings: J. Ant. Chem., 39, 643, (1997); cited from earlier work
S. aureus [2] = experiment: Bacterial growth in broth culture with NAC; format: cell-based, Staphylococcus aureus; settings: NAC up to maximum concentration 8 mg/ml
S. aureus biofilm [3] = experiment: Disruption of fully consolidated biofilm (48 hours); format: cell-based, Staphylococcus aureus
Experimental: as §1
(§2) The biofilm adhering to the walls of the microplates was washed with PBS, suspended in 10% sarcosyl and measured spectrophotometrically at 492 nm.
(§3) The same technique was employed for calculating the residual quantity of biofilm after treatment with NAC alone and combined with TAPh on S. aureus. For this purpose, biofilms with two different degrees of maturity: initial (5 hours) and fully consolidated (48 hours) were exposed to suitable concentrations of NAC (from 8 mg/ml to 0.007 mg/ml) with added TAPh at the concentrations that can be reached in vivo in the pulmonary tree.

P. aeruginosa = settings: Antimicrob. Agents Chemother., 35, 1258, (1991); cited from earlier work
S. aureus biofilm [4] = experiment: Disruption of biofilm at initial maturation (5 hours); format: cell-based, Staphylococcus aureus; settings: for disruption of biofilm formed after 5 hours (initial maturation): maximum concentration (8 mg/ml)
Experimental: as §1, §2, §3

S. aureus biofilm [5] = experiment: Biofilm formation in polystyrene microplates, crystal violet, spectrophotometric at 492 nm; format: cell-based, Staphylococcus aureus; settings: for reduction of the biofilm (formation) / decrease of biofilm production: NAC 8 mg/ml, 24 hours
Experimental: as §1
Formation of the biofilms was quantified spectrophotometrically in polystyrene microplates with U-well geometry (Corning Incorporated, New York).
In more detail, the effect of NAC on biofilm formation was evaluated as follows: overnight broth cultures in tryptic soy broth (TSB) with glucose added (0.25%) (TSBG) were diluted 1:100 in TSBG. Appropriate dilutions of NAC at concentrations varying respectively from 8 mg/ml to 0.007 mg/ml were added to the suspensions (100 μl each). After incubation at 37° C. for 24 hours, the microplates were washed three times with 10 mM phosphate buffer pH 7.4 (PBS), treated with Bouin fixative and then stained with crystal violet (0.01%).
as §2

SMILES: CC(=O)N[C@@H](CS)C(=O)O [NAC, N-acetyl-cysteine]
- reduction in colony forming units per ml (CFU/ml) (S. aureus [1]; cells of mature (consolidated) biofilms): 33.7% to 70.6
- reduction in colony forming units per ml (CFU/ml) (S. aureus [1]; cells of the youngest biofilms (initial maturation)): 33.7% to 91
- inhibition of biofilm formation (S. epidermidis): inhibit their formation
- visible changes in bacterial growth (S. aureus [2]): did not cause visible changes in bacterial growth
- reduction values with NAC on its own, fully consolidated biofilms (range over strains, restated) (S. aureus biofilm [3]; NAC alone, second range printed): 58.1-62%
- reduction of mucopolysaccharide material of fully consolidated biofilms (S. aureus biofilm [3]; maximum concentration, four strains assayed, one value each, strain per value not given): 62% and 60.5% and 58.1% and 65.5%
- disruption of biofilms (P. aeruginosa): ability to disrupt biofilms
- reduction values with NAC on its own, initial biofilms (range over strains, restated) (S. aureus biofilm [4]; NAC alone, first range printed): 32.5-65.5%
- disruption of biofilm formed after 5 hours (initial maturation) (S. aureus biofilm [4]; S. aureus 1876): 32.5%
- disruption of biofilm formed after 5 hours (initial maturation) (S. aureus biofilm [4]; strain 1393): 61.1%
- disruption of biofilm formed after 5 hours (initial maturation) (S. aureus biofilm [4]; strain 1880): 57.3%
- disruption of biofilm formed after 5 hours (initial maturation) (S. aureus biofilm [4]; strain 1890): 58.6%
- reduction of the biofilm (formation) (S. aureus biofilm [5]; S. aureus 1393): 68.2%
- decrease of biofilm production (S. aureus biofilm [5]; S. aureus 1876): 30.3%
- decrease of biofilm production (S. aureus biofilm [5]; S. aureus 1880): 41.1%
- reduction of the biofilm (formation) (S. aureus biofilm [5]; S. aureus 1890): 56.3%
- glycocalyx production (S. aureus biofilm [5]; all the strains): inhibited glycocalyx production in all the strains
